Source: patent US20240299362A1, “EXOSOME PACKAGING AND TARGETED AUTOPHAGY” (University of Ottawa, priority 2017, published 2024)
No end group written: not given here. *: point of attachment. Biotin = O=C1N[C@H]2[C@H](CS[C@H]2CCCCC(=O)*)N1

Key:
[1] = system: Atg5^−/− MEF; assay: Exosome production (dynamic light scattering, Western blot), Example 2; assay type: cell-based, mouse; conditions: BAF or ConA 12 h
Procedure: (§1) Exosomes were enriched by differential centrifugation as previously described (Thery et al., 2006). Briefly, MEF or MDA-MB-231 cells were cultured in media containing FBS depleted of exosomes by centrifugation at 100,000 g for 16 h (Thery et al., 2006). To purify exosomes supernatant from cell cultures was centrifuged at 400 g (7 min), 2000 g (10 min) and 10,000 g (30 min, SW32 rotor). At each step the supernatant was recovered. After centrifugation at 100,000 g (1 h 10 min, SW32 rotor) the supernatant was removed and the pellet was resuspended. The pellet was washed in PBS by a final centrifugation at 100,000 g (20 min, TLA100.3 rotor). The exosome-enriched pellet was re-suspended in PBS for further analyses.
(§2) Preparations of enriched exosomes were analyzed by dynamic light scattering on a Protein Solutions Dynapro Instrument using Dynamics V6 software. Data were acquired every 10 seconds at 4° C. and 10% laser power for at least 200 seconds per sample. The intensity (Cnt/s) and size (nm) were generated automatically by the instrument.
Preparations of enriched exosomes were analyzed using a Nanosight LM10 instrument with Nanoparticle Tracking Analysis software Version 2.3. Measurement temperature was 22° C. and time setting was 90 seconds. The analysis conditions were set as: Blur 3×3, Detection Threshold 3, Min Track Length 9, and Min Expected Size 30 nm. […]

[2] = target: T1, V0-ATPase complex (Mus musculus, UniProt P63082); assay: Lysotracker staining of cells with V0-ATPase inhibitors; assay type: cell-based; conditions: MEF; 12 h treatment
T1 construct: endogenous in cells; MEF inferred)
T1 sequence (P51863 whole entry): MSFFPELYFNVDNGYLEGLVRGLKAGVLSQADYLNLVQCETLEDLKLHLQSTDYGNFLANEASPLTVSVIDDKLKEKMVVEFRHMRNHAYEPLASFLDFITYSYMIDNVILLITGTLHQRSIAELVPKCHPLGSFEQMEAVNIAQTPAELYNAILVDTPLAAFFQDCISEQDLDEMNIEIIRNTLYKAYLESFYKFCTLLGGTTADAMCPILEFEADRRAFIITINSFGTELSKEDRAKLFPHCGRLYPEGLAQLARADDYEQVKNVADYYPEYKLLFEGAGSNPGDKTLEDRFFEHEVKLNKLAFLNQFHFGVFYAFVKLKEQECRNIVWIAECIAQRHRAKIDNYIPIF
T1 sequence (Q9Z1G4 whole entry, further chain): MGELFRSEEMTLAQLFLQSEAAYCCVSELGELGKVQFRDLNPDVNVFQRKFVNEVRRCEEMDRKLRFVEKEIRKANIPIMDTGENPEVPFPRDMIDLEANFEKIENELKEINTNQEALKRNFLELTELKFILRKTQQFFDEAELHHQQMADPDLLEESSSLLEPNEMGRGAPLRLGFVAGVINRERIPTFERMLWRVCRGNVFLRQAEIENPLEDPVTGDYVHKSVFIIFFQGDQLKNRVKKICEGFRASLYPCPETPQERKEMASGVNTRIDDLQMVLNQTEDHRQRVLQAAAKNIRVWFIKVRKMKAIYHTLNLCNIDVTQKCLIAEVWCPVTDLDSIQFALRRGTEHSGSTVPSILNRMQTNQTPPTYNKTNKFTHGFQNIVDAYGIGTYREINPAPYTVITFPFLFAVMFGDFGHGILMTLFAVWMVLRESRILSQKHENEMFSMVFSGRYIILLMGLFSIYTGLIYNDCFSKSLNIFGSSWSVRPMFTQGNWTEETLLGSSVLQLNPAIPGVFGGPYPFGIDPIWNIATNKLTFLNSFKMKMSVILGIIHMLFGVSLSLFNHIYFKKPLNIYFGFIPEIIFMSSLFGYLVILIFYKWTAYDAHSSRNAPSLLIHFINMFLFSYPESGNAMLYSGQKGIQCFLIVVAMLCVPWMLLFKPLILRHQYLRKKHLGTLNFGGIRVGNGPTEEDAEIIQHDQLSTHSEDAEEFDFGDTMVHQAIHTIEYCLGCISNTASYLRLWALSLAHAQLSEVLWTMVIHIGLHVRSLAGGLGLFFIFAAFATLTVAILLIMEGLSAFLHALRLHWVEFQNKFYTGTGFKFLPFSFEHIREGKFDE
T1 sequence (Q91V37 whole entry, further chain): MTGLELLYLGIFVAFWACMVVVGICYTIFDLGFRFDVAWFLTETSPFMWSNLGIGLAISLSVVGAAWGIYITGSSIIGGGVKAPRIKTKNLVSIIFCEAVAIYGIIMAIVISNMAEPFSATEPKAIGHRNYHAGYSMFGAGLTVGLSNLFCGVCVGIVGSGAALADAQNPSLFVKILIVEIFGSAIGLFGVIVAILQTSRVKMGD
T1 sequence (P63082 whole entry): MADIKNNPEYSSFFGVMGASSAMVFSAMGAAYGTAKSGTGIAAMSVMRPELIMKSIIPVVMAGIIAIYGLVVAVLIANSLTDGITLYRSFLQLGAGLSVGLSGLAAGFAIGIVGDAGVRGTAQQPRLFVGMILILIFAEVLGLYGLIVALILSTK
Description: If increased MVB acidification in Atg5^−/− cells causes the drop in exosome release, blocking acidification of MVB may promote exosome release.

[3] = system: Atg5^−/− MEF; assay: Exosome production (nanoparticle tracking, dynamic light scattering, Western blot), Example 1; assay type: cell-based, mouse; conditions: Chloroquine 100 μM 16 h, NH4Cl 20 mM 30 min, Concanamycin, siRNA
Procedure: Exosomes were enriched by differential centrifugation as previously described (Thery et al., 2006). Briefly, cells were cultured in media containing 10% FBS previously depleted of exosomes by centrifugation at 100 000 g for 16 h (Thery et al., 2006). To purify exosomes, supernatant from cell cultures was centrifuged at 300 g (10 min), 2000 g (10 min) and 10,000 g (30 min, SW32 rotor). At each step the supernatant was recovered. After centrifugation at 100 000 g (1 h 10 min, SW32 rotor) the supernatant was removed and the pellet was resuspended. The pellet was washed in PBS by a final centrifugation at 100 000 g (20 min, TLA100.3 rotor). The exosome-enriched pellet was re-suspended in PBS for further analyses.
Preparations of enriched exosomes were analyzed using either a Nanosight (FIG. 1A,C) or a ParticleMetrix Zetaview Nanoparticle tracking instrument (all other graphs). […]
The Zeta View Nanoparticle Tracking instrument (ParticleMetrix) is calibrated for experiments following every instrument start-up. […] If the sample falls within the acceptable reading concentration range, video acquisition and analysis was performed using the following parameters. Acquisition Parameters: Sensitivity (85), Shutter speed (40), Frame rate per second (30), Resolution (Highest), Positions measured (11). […]
The analysis reports containing the particle size (nm) and concentration (particles/ml) were generated automatically. The particles between 45 nm and 105 nm were summed to quantify exosome-sized particles. In experiments in FIG. 5N,O measuring exosome production after treating cells with NH4Cl or Chloroquine for short time periods, background readings from exosome-depleted media alone were subtracted. […]

[4] = system: stress granules (G3BP1+); assay: Stress granules remaining with scFv-LC3 fusion with or without mTOR inhibitor INK128; assay type: cell-based; conditions: arsenite 1 h, recovery 30 min, G3BP1+ staining
Procedure: Nucleic acids encoding the fusion constructs were stably transduced into cells using lentivirus to generate stable expression using the CMV promoter. Cells were cultured in Lonza Ultraculture medium for 24 h and exosomes were harvested by tangential flow filtration concentration and dialysis on a 750 kDa pore size. Exosomes were then incubated with target cells between 2-24 h. After this time point cells were lysed and levels of cytoplasmic TDP-43 were measured by western blot after elimination of nuclei. […] for 30 min and cells were fixed for immunofluorescence to measure the persistence of stress granules using antibodies targeting G3BP1, PABP or DDX3. The number of stress granules were compared to fusions like scFv VH7 with and without LC3. In some experiments cells were pre-treated for 2-24 h with mTOR inhibitors to induce autophagy.
Experiments were performed to assess whether elimination of anti-TDP-43 VH7 scFv targets by autophagy, triggered by scFv-LC3 fusion constructs, could be further enhanced by treatment with an autophagy-activating agent. In this example, mTOR inhibitor INK128 was used as the autophagy-activating agent.
Cells were transfected with scFv versus TDP-43 fused to LC3, and treated or not treated with the mTOR inhibitor INK128 to assess autophagy activation. […]

[5] = system: wild-type MEF; assay: Exosome production (dynamic light scattering, Western blot) with pp242; assay type: cell-based, mouse; conditions: pp242 1 μM
Procedure: as §1, §2

[6] = system: recombinant LC3; conditions: 10 nmoles peptide, 100 ng recombinant LC3
Procedure: (SEQ ID NO: 20). Fifteen μl of Dynabeads® MyOne™ Streptavidin T1 (Cat #65601, ThermoFisher) were washed with PBS, then 10 nmoles of biotinylated peptides and 100 ng of recombinant LC3 were added. The mixture was rotated at 4 C over night. The beads were then washed with PBS 3 times and collected for further western analysis.

[7] = system: recombinant LC3; conditions: competitive excess of peptide; cell lysate
Procedure: In brief, 0.5 μg of His-tagged recombinant LC3 (His-tag, Cat #ADI-APR-100-0200, Enzo Life Sciences) was rotated in 50 μl with 5 μl of His-tagged Dynabeads (Cat #10103D, Thermofisher) in a binding/wash buffer (50 mM Sodium Phosphate, pH 8.0, 150 mM NaCl, 0.01% Tween®-20, 0.5% Triton X-100) at room temperature (RT) for 10 min. Then 150 μl of binding/wash buffer containing 5% BSA was added to the tubes and rotated for 5 minutes. Tubes were placed on a magnet and supernatant discarded. Cell lysate (100 ul, 150 ug) collected in Pull-down Buffer (3.25 mM Sodium phosphate pH 7.4, 70 mM NaCl, 0.01% Tween®-20, 0.5% Triton X-100) was incubated on a roller for 10 min. Supernatant was discarded and beads were washed 4 times with 300 μl Binding/Wash Buffer. His-LC3 was eluted with 150 mM Imidazole, 50 mM Sodium phosphate pH 8.0, 300 mM NaCl, 0.01% Tween®-20 with gentle shaking for 5 min. Supernatants were separated from beads on a magnet. The median intensities of bands for p62, ATP6V1E1 and background were quantified over 3 independent experiments using ImageQuantTL (GE Healthcare).
Experiments with competitive peptides were performed as above, except 50 μmoles of peptide was added during incubation with cell lysate. […] (SEQ ID NO: 20).

[8] = system: exosomes; assay: Packaging of LC3 fusion proteins into exosomes (luciferase light, Western blot of exosomes); assay type: cell-based
Description: FIG. 28 D and E show Western blots of exosomes transfected with Luciferase or Luciferase-LC3 fusion (D), or dsRed or dsRed-LC3 fusion (E). […] The scFv in this experiment was anti-TDP-43 VH7 antibody scFv. Detection of the fusion was by Western blot with anti-LC3 antibody or antibody vs. HA tag incorporated into the linker region in the fusion. […] In FIG. 29 C, expression of scFv-LC3 construct in cells was achieved using lentivirus. […] In FIG. 29 C, cells were expressing anti-TDP-43 antibody scFv clone Vh7. […] The inventors hypothesized that exosomes may deliver intrabody-LC3 chimeras with high efficiency to tissues like liver, small intestine and kidney (IV), and if injected (for example) into the spinal cord (as ASOs or AAV in patients in neurodegeneration), throughout the spinal cord and the brain. […]
Nucleic acids encoding the fusion constructs were stably transduced into cells using lentivirus to generate stable expression using the CMV promoter. […] After this time point cells were lysed and levels of cytoplasmic TDP-43 were measured by western blot after elimination of nuclei. […]
The data are for 3 scFv fused to LC3 derived from anti-TDP-43 VH7, anti-TDP-43 41D1, and anti-Tau 4E4. […] Cells were transduced with scFv-LC3 conjugates, and exosomes were purified from these and analyzed by Western blot. […]

Compound: CO/C1=C\C(C)=C\[C@@H](C)[C@@H](O)[C@@H](C)C/C(C)=C/C=C/[C@H](OC)[C@@H]([C@@H](C)[C@@H](O)[C@H](C)[C@@]2(O)C[C@@H](O)[C@H](C)[C@@H](C(C)C)O2)OC1=O [Bafilomycin A1]
- exosome production of Atg5^−/− cells [1]: restored exosome production
- staining of cells with Lysotracker [2]: abrogated staining of cells with Lysotracker

Compound: CCN(CC)CCCC(C)Nc1ccnc2cc(Cl)ccc12 (centres unmarked) [Chloroquine]
- exosome production in Atg5^−/− cells [3]: rescued exosome production

Compound: CC(C)n1nc(-c2ccc3oc(N)nc3c2)c2c(N)ncnc21 [INK128]
- % of stress granules remaining [4]: did not have a measureable effect

Compound: Cl.N [NH4Cl]
- exosome production in Atg5^−/− cells [3]: rescued exosome production

Compound: CC(C)n1nc(-c2cc3cc(O)ccc3[nH]2)c2c(N)ncnc21 [pp242]
- exosome production [5]: increased exosome production

Compound: Biotin-RCRKAILPLQKA [control mutated peptide]
- pulldown of recombinant LC3 by biotinylated peptide [6]: bound at background levels

Compound: Biotin-RCRKQDFPLVKA [putative ATP6V1E1 LIR motif peptide]
- competition of ATP6V1E1 pulldown by recombinant LC3 [7]: did not affect binding
- competition of p62 pulldown by recombinant LC3 [7]: did not affect binding
- pulldown of recombinant LC3 by biotinylated peptide [6]: bound at background levels

Compound: Concanamycin A
- exosome production of Atg5^−/− cells [1]: restored exosome production
- staining of cells with Lysotracker [2]: abrogated staining of cells with Lysotracker
- exosome production in Atg5^−/− cells [3]: rescued exosome production

Compound: HJ8.5-LC3a: anti-Tau scFv HJ8.5 fused via linker and HA tag to LC3a (SEQ ID NO: 57)
- packaging of construct into exosomes [8]: packaged into exosomes

Compound: biotin-SGGDDDWTHLSS [p62 LIR motif peptide]
- competition of ATP6V1E1 pulldown by recombinant LC3 [7]: had no effect
- competition of p62 pulldown by recombinant LC3 [7]: competed with endogenous p62 binding
- pulldown of recombinant LC3 by biotinylated peptide [6]: pulled down recombinant LC3
